ChEMBL document CHEMBL5365548, “Discovery of Pyrrolo[2,3-c]pyridines as Potent and Reversible LSD1 Inhibitors” (ACS Med Chem Lett, 2023)
pIC50: −log10 of the molar value.

Key:
[1] = system: NCI-H1417; test: Antiproliferative activity against human NCI-H1417 cells assessed as cell growth inhibition incubated for 10 days by WST-8 assay; assay type: functional, cell-based; conditions: NCI-H1417, 240 h
[2] = biological target: Lysine-specific histone demethylase 1A (Homo sapiens, UniProt O60341); test: Inhibition of human recombinant LSD1 expressed in Escherichia coli using H3K4me2 peptide as substrate incubated for 60 mins by AlphaLISA assay
[3] = system: MOLM-13; test: Antiproliferative activity against human MOLM-13 cells assessed as cell growth inhibition incubated for 7 days by WST-8 assay; assay type: functional, cell-based; conditions: MOLM-13, 168 h
[4] = system: MV4-11; test: Antiproliferative activity against human MV4-11 cells assessed as cell growth inhibition incubated for 10 days by WST-8 assay; assay type: functional, cell-based; conditions: MV4-11, 240 h
[5] = Microsomal stability in dog liver microsome assessed as half life measured upto 60 mins by LC-MS/MS analysis; assay type: ADME, Canis lupus familiaris; conditions: liver microsomes
[6] = Microsomal stability in mouse liver microsome assessed as half life measured upto 60 mins by LC-MS/MS analysis; assay type: ADME; conditions: liver microsomes
[7] = Microsomal stability in rat liver microsome assessed as half life measured upto 60 mins by LC-MS/MS analysis; assay type: ADME; conditions: liver microsomes
[8] = Microsomal stability in human liver microsome assessed as half life measured upto 60 mins by LC-MS/MS analysis; assay type: ADME; conditions: liver microsomes

Cc1ccc(-c2ncc(OC[C@@H]3CCNC3)cc2-c2ccc(C#N)cc2)cc1
pIC50 [1]: 6.67 | pIC50 [2]: 6.89 | pIC50 [3]: 6.21 | pIC50 [4]: 6.91

CC(C)c1ccc(-c2ncc3c(ccn3CC3CCNCC3)c2-c2ccc(C#N)cc2)cc1
pIC50 [2]: 7.34

Cn1ncc2cc(-c3ncc4c(ccn4CC4CCNCC4)c3-c3ccc(C(N)=O)cc3)ccc21
pIC50 [2]: 5.20

COC(C)(C)c1ccc(-c2ncc3c(ccn3CC3CCNCC3)c2-c2ccc(C#N)cc2)cc1
pIC50 [2]: 7.78

CN(C)c1ccc(-c2ncc3c(ccn3CC3CCNCC3)c2-c2ccc(C#N)cc2)cc1
pIC50 [2]: 8.03

CCC1(Cn2ccc3c(-c4ccc(C#N)cc4)c(-c4ccc5c(cnn5C)c4)ncc32)CCNCC1
pIC50 [2]: 6.92

Cc1cc(-c2c(-c3ccc4c(cnn4C)c3)ncc3c2ccn3CC2CCNCC2)ccc1C#N
pIC50 [2]: 6.81

Cn1ncc2cc(-c3ncc4c(ccn4CC4CCNCC4)c3-c3ccc(C#N)cc3F)ccc21
pIC50 [2]: 7.76

Cn1ccc2cc(-c3ncc4c(ccn4CC4CCNCC4)c3-c3ccc(C#N)cc3)cnc21
pIC50 [2]: 8.29

COC(=O)Nc1ccc(-c2ncc3c(ccn3CC3CCNCC3)c2-c2ccc(C#N)cc2)cc1
pIC50 [2]: 7.27

CN1CCOc2cc(-c3ncc4c(ccn4CC4CCNCC4)c3-c3ccc(C#N)c(F)c3)ccc21
pIC50 [1]: 8.57 | half-life [5]: 37 min | half-life [6]: < 10 min | pIC50 [2]: 8.37 | half-life [7]: 42 min | half-life [8]: < 10 min | pIC50 [3]: 7.24 | pIC50 [4]: 8.77

CC(C)(O)c1ccc(-c2ncc3c(ccn3CC3CCNCC3)c2-c2ccc(C#N)cc2)cc1
pIC50 [2]: 7.68

Cc1ccc(-c2ncc3c(ccn3CC3CCNCC3)c2-c2ccc(C#N)cc2)cc1
pIC50 [2]: 7.46

Cn1ccc2cc(-c3ncc4c(ccn4CC4CCNCC4)c3-c3ccc(C#N)cc3)ccc21
pIC50 [2]: 8.19

Cn1cnc2cc(-c3ncc4c(ccn4CC4CCNCC4)c3-c3ccc(C#N)cc3)ccc21
pIC50 [2]: 7.81

C=C(C)c1ccc(-c2ncc3c(ccn3CC3CCNCC3)c2-c2ccc(C#N)cc2)cc1
pIC50 [2]: 7.23

Cn1cc(-c2ncc3c(ccn3CC3CCNCC3)c2-c2ccc(C#N)cc2)cn1
pIC50 [2]: < 6.00

CS(=O)(=O)c1ccc(-c2ncc3c(ccn3CC3CCNCC3)c2-c2ccc(C#N)cc2)cc1
pIC50 [2]: 6.84

Cn1ncc2cc(-c3ncc4c(ccn4CC4CCNCC4)c3-c3ccc(C#N)cc3)ccc21
pIC50 [1]: 7.96 | pIC50 [2]: 7.89 | pIC50 [3]: 7.21 | pIC50 [4]: 8.39

Cn1ncc2cc(-c3ncc4c(ccn4CC4(C)CCNCC4)c3-c3ccc(C#N)cc3)ccc21
pIC50 [1]: 8.24 | pIC50 [2]: 8.37 | pIC50 [3]: 6.90 | pIC50 [4]: 8.49

CN1CCOc2cc(-c3ncc4c(ccn4CC4(C)CCNCC4)c3-c3ccc(C#N)c(F)c3)ccc21
pIC50 [1]: 8.64 | half-life [5]: 35 min | half-life [6]: < 10 min | pIC50 [2]: 8.85 | half-life [7]: 36 min | half-life [8]: < 10 min | pIC50 [3]: 6.74 | pIC50 [4]: 9.15

CN1CCOc2cc(-c3ncc4c(ccn4CC4(C)CCNCC4)c3-c3ccc(C#N)cc3)ccc21
pIC50 [1]: 8.43 | pIC50 [2]: 8.89 | pIC50 [3]: 6.89 | pIC50 [4]: 8.82

CNCCCn1ccc2c(-c3ccc(C#N)cc3)c(-c3ccc4c(cnn4C)c3)ncc21
pIC50 [2]: 7.37

N#Cc1ccc(-c2c(-c3ccc4[nH]ncc4c3)ncc3c2ccn3CC2CCNCC2)cc1
pIC50 [2]: 7.03

N#Cc1ccc(-c2c(-c3ccc(N)cc3)ncc3c2ccn3CC2CCNCC2)cc1
pIC50 [2]: 6.45

Cn1ncc2cc(-c3ncc4c(ccn4C[C@@H]4CCCNC4)c3-c3ccc(C#N)c(F)c3)ccc21
pIC50 [2]: 8.46

Cc1ccc(-c2ncc3c(ccn3CC3CCNCC3)c2-c2ccc(C#N)cc2)cc1C
pIC50 [2]: 7.61

CNC1CCC(Cn2ccc3c(-c4ccc(C#N)c(F)c4)c(-c4ccc5c(cnn5C)c4)ncc32)CC1 (stereo not drawn)
pIC50 [2]: 6.64

Cn1ncc2cc(-c3ncc4c(ccn4Cc4cccnc4)c3-c3ccc(C#N)c(F)c3)ccc21
pIC50 [2]: < 5.00

CN1CCOc2cc(-c3ncc4c(ccn4CC4CCNCC4)c3-c3ccc(C#N)cc3)ccc21
pIC50 [1]: 8.03 | pIC50 [2]: 8.34 | pIC50 [3]: 6.77 | pIC50 [4]: 8.54

Cn1ncc2cc(-c3ncc4c(ccn4CCCCN)c3-c3ccc(C#N)cc3)ccc21
pIC50 [2]: 7.91

Cc1ccc(-c2ncc3c(ccn3CC3CCNCC3)c2-c2ccc(C#N)cc2)cn1
pIC50 [2]: 7.16

CC(C)(C)c1ccc(-c2ncc3c(ccn3CC3CCNCC3)c2-c2ccc(C#N)cc2)cc1
pIC50 [2]: 7.32

Cn1ncc2cc(-c3ncc4c(ccn4C[C@@H]4CCNC4)c3-c3ccc(C#N)c(F)c3)ccc21
half-life [5]: > 60 min | half-life [6]: > 60 min | pIC50 [2]: 8.43 | half-life [7]: > 60 min | half-life [8]: > 60 min

Cn1ncc2cc(-c3ncc4[nH]ccc4c3-c3ccc(C#N)cc3)ccc21
pIC50 [2]: 5.43

Cn1ncc2cc(-c3ncc4c(ccn4CC4(C)CCNCC4)c3-c3ccc(C#N)c(F)c3)ccc21
pIC50 [1]: 8.96 | half-life [5]: > 60 min | half-life [6]: > 60 min | pIC50 [2]: 8.51 | half-life [7]: > 60 min | half-life [8]: > 60 min | pIC50 [3]: 7.51 | pIC50 [4]: 9.22

Cn1ncc2cc(-c3ncc4c(ccn4CC4CCNCC4)c3-c3ccc(C#N)c(F)c3)ccc21
pIC50 [1]: 8.14 | half-life [5]: > 60 min | half-life [6]: > 60 min | pIC50 [2]: 8.41 | half-life [7]: > 60 min | half-life [8]: > 60 min | pIC50 [3]: 6.50 | pIC50 [4]: 8.57

Cc1cc(C#N)ccc1-c1c(-c2ccc3c(cnn3C)c2)ncc2c1ccn2CC1CCNCC1
pIC50 [2]: 6.67

Cc1ccc(-c2ncc3c(ccn3C[C@@H]3CCNC3)c2-c2ccc(C#N)cc2)cc1
pIC50 [2]: 7.10

Cn1ncc2cc(-c3ncc4c(ccn4Cc4c[nH]cn4)c3-c3ccc(C#N)c(F)c3)ccc21
pIC50 [2]: < 5.00

C/C(=N\NC(=O)c1cccc(S(=O)(=O)N2CCN(C)CC2)c1)c1cc(Cl)ccc1O [SECLIDEMSTAT]
pIC50 [2]: 7.58
